# From article PMC10854894, “A New Benzo[6,7]oxepino[3,2-b] Pyridine Derivative Induces Apoptosis in Canine Mammary Cancer Cell Lines” (Animals : an Open Access Journal from MDPI, 2024)
# pIC50: −log10 of the molar value. Like-named read-outs stand apart in the source and are kept apart here.
# How the values were obtained:
# Format in all cases: cell-based, canine
# CMGT071020 cells [1] = assay: MTT cell proliferation/cytotoxicity assay; details: Canis lupus familiaris, read-out: Half-Maximal Inhibitory Concentration (IC50)
# Experimental: (§1) The cytotoxic effects of the three BZOP derivatives were studied via the 3-(4,5-Dimethyl-2-thiazolyl)-2,5-diphenyl-2H-tetrazolium bromide (MTT) assay. The REM134, CMGT071020, and MDCK cell lines were seeded at a density of 5 × 10^3 cells/well in 96-well plates and allowed to grow for 24 h. They were then treated with the three BZOP derivatives at various concentrations (0–300 µM) for 24 or 48 h, whereas cells treated with the culture medium containing 0.1% dimethyl sulfoxide (DMSO) were used as a negative control as the compounds were dissolved in DMSO. Subsequently, the cells were incubated with 10 µL of an MTT solution (Sigma, St. Louis, MO, USA) for 4 h. After the incubation with MTT solution, 100 µL of a solubilization solution was added to dissolve water-insoluble purple formazan crystals, and the plate was incubated overnight at 37 °C in 5% CO2. The absorbance of the formazan solution was measured using a Synergy H1 hybrid multi-mode microplate reader (BioTek, Winooski, VT, USA) at 570 nm. The experiment was conducted with four replicates, and the relative cell viability (%) of the treated cells was expressed as a percentage relative to the untreated control cells, which were considered to have 100% viability.
# MDCK cells = assay: MTT cell proliferation/cytotoxicity assay; details: Canis lupus familiaris, read-out: Half-Maximal Inhibitory Concentration (IC50)
# Experimental: as §1
# REM134 cells [2] = assay: MTT cell proliferation/cytotoxicity assay; details: Canis lupus familiaris, read-out: Half-Maximal Inhibitory Concentration (IC50)
# Experimental: as §1
# CMGT071020 cells [3] = assay: Wound healing assay; details: CMGT071020, 100 or 200 µM, 12 or 24 h, vs untreated control
# Experimental: (§2) The effect of MPOBA on cell migration was examined using a two-dimensional wound healing assay. The REM134 and CMGT071020 cell lines were seeded in a 6-well plate at a density of 5 × 10^5 cells/well and allowed to incubate for 24 h until they reached 100% confluence. The cells were scratched using a sterile 1 mL pipette tip and then treated with MPOBA at concentrations ranging from 0 to 200 µM for 24 h. Images of the scratches were captured at 0, 12, and 24 h post-treatment using phase-contrast microscopy. The wound areas were checked and measured using the NIS-Elements D imaging software program version 5.2 (Nikon, Tokyo, Japan). The cell migration ability was calculated as a percentage of the area covered by cells at 24 h compared to the initial wound area at 0 h. The experiments were repeated four times.
# REM134 cells [4] = assay: Wound healing assay; details: REM134, 100 or 200 µM, 12 or 24 h, vs untreated control
# Experimental: as §2
# CMGT071020 cells [5] = assay: Relative mRNA expression by qRT-PCR
# Experimental: (§3) After the treatment of the cells with MPOBA at varying concentrations from 0 to 200 µM for 48 h, the total RNA was isolated using a GeneJet RNA Purification kit (Thermo Fisher Scientific, Waltham, MA, USA) according to the manufacturer’s protocol for adherent tissue culture cells using the spin-column method. The RNA’s concentration and purity (A260/A280 ratio) were spectrophotometrically determined using a NanoDrop One/OneC Microvolume UV-Vis Spectrophotometer (Thermo Fisher Scientific, Waltham, MA, USA). To remove genomic DNA contamination, the samples were treated with RQ1 RNase-Free DNase (Promega, Madison, WI, USA) according to the manufacturer’s instructions. First-strand cDNA was obtained using a SuperScript® III First-Strand Synthesis kit for reverse-transcription polymerase chain reaction (RT-PCR) (Invitrogen, Carlsbad, CA, USA) according to the manufacturer’s protocol. Briefly, total RNA (1 μg), oligo (dT) primers (50 µM), a dNTP mix (10 mM), the cDNA synthesis mix, and nuclease-free water were added to obtain a final volume of 20 µL. PCR amplification was performed using a G-Storm GS482 PCR thermal cycler (Gene Technologies, Somerset, UK) with the following reaction profile: 65 °C for 5 min, 50 °C for 50 min, 85 °C for 5 min, and 37 °C for 5 min. The relative mRNA expression levels of canine SNAIL, SLUG, TWIST, E-cadherin, N-cadherin, TP53, EGFR, BAX, and BCL-2 were normalized to canine glyceraldehyde 3-phosphate dehydrogenase (GAPDH). The relative mRNA expression levels were calculated using the 2^–∆∆ Cq method. The transcriptional levels of all genes were determined in four replicates via qRT-PCR using a CFX 96 Touch real-time PCR detection system (Bio-Rad, Hercules, CA, USA). The qRT-PCR was performed using a reaction mixture containing 2 μL of the cDNA template, 10 μL of the iTaq Universal SYBR Green Supermix (Bio-Rad, Hercules, CA, USA), and 1 μL of each primer. The qRT-PCR protocol for the SNAIL, SLUG, TWIST, EGFR, TP53, BAX, BCL-2, and GAPDH genes was carried out as follows: initial denaturation at 94 °C for 3 min, denaturation at 94 °C for 15 s, annealing at 60 °C for 30 s, and extension at 72 °C for 1 min (40 cycles), and dissociation curves were generated between 65 °C and 95 °C to assess the specificity of the amplicons. The qRT-PCR protocol for E-cadherin and N-cadherin was carried out according to Yu et al..
# REM134 cells [6] = assay: Relative mRNA expression by qRT-PCR
# Experimental: as §3
# [7] = CMGT071020, 200 µM, 48 h, vs control
# [8] = REM134, 200 µM, 48 h, vs control
# [9] = REM134, 48 h, treated vs untreated
compound,measurement,setting,value
"Cc1ncccc1Oc1ccccc1C=O [MPOBA, 2-((2-methylpyridin-3-yl)oxy)benzaldehyde]",pIC50,"CMGT071020 cells [1]; CMGT071020, 24 h",< 3.52
same,pIC50,"CMGT071020 cells [1]; CMGT071020, 48 h",3.98
same,pIC50,MDCK cells; 24 h,< 3.52
same,pIC50,MDCK cells; 48 h,3.57
same,pIC50,"REM134 cells [2]; REM134, 24 h",3.58
same,pIC50,"REM134 cells [2]; REM134, 48 h",4.06
same,cell migration (wound closure),CMGT071020 cells [3],significant decline in cell migration
same,cell migration (wound closure),REM134 cells [4],significant decline in cell migration
same,BAX mRNA expression level,CMGT071020 cells [5]; [7],dramatically increased
same,BCL-2 mRNA expression level,CMGT071020 cells [5]; [7],significantly decreased
same,TP53 mRNA expression level,CMGT071020 cells [5]; [7],significantly increased
same,TWIST mRNA expression level,"CMGT071020 cells [5]; CMGT071020, 48 h, treated vs untreated",not significantly different
same,E-cadherin mRNA expression level,"CMGT071020 cells [5]; CMGT071020, 48 h, vs control",upregulation
same,EGFR mRNA expression level,"CMGT071020 cells [5]; CMGT071020, 48 h, vs control",significantly decreased
same,N-cadherin mRNA expression level,"CMGT071020 cells [5]; CMGT071020, 48 h, vs control",significant downregulation
same,SLUG mRNA expression level,"CMGT071020 cells [5]; CMGT071020, 48 h, vs control",significant downregulation
same,SNAIL mRNA expression level,"CMGT071020 cells [5]; CMGT071020, 48 h, vs control",significant downregulation
same,BAX mRNA expression level,REM134 cells [6]; [8],dramatically increased
same,BCL-2 mRNA expression level,REM134 cells [6]; [8],significantly decreased
same,TP53 mRNA expression level,REM134 cells [6]; [8],significantly increased
same,SLUG mRNA expression level,REM134 cells [6]; [9],not significantly different
same,TWIST mRNA expression level,REM134 cells [6]; [9],not significantly different
same,E-cadherin mRNA expression level,"REM134 cells [6]; REM134, 48 h, vs control",upregulation
same,EGFR mRNA expression level,"REM134 cells [6]; REM134, 48 h, vs control",significantly decreased
same,N-cadherin mRNA expression level,"REM134 cells [6]; REM134, 48 h, vs control",significant downregulation
same,SNAIL mRNA expression level,"REM134 cells [6]; REM134, 48 h, vs control",significant downregulation
